# Measurements reported in PubChem BioAssay (NCI).
# Values joined by “and” are separate entries in the source; they are usually repeats but may differ in a detail not shown here. Equal values may be shown once.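 Five concentrations, 48 hours, 96-well plates. Abbreviation: GI50, concentration required for 50% inhibition of growth. TGI marks complete inhibition of growth.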
# Columns and labels:
# Assay in all cases: inhibition of tumour cell growth, NCI panel, 48 h
# HS 578T breast = tested on: HS 578T breast
# MOLT-4 leukemia = tested on: MOLT-4 leukemia
# DU-145 prostate = tested on: DU-145 prostate
# CCRF-CEM leukemia = tested on: CCRF-CEM leukemia
# NCI-H522 lung = tested on: NCI-H522 lung
# SK-MEL-2 melanoma = tested on: SK-MEL-2 melanoma
# MDA-MB-231 breast = tested on: MDA-MB-231 breast
# UO-31 renal = tested on: UO-31 renal
# RXF 393 renal = tested on: RXF 393 renal
# ACHN renal = tested on: ACHN renal
Structure (SMILES),GI50 (HS 578T breast),TGI (HS 578T breast),GI50 (MOLT-4 leukemia),TGI (MOLT-4 leukemia),GI50 (DU-145 prostate),TGI (DU-145 prostate),GI50 (CCRF-CEM leukemia),TGI (CCRF-CEM leukemia),GI50 (NCI-H522 lung),TGI (NCI-H522 lung),GI50 (SK-MEL-2 melanoma),TGI (SK-MEL-2 melanoma),GI50 (MDA-MB-231 breast),TGI (MDA-MB-231 breast),GI50 (UO-31 renal),TGI (UO-31 renal),GI50 (RXF 393 renal),TGI (RXF 393 renal),GI50 (ACHN renal),TGI (ACHN renal)
C#CC[C@@H]1C[C@]2(C)[C@H]3CC[C@@H]4[C@H]5[C@H](C(=C)C)CC[C@]5(C(=O)O)CC[C@@]4(C)[C@]3(C)CC[C@H]2C(C)(C)[C@H]1O,2.34 µM,7.01 µM,3.16 µM,> 100 µM,3.23 µM,10.8 µM,2.36 µM,9.02 µM,2.95 µM,12.3 µM,2.4 µM,6.78 µM,2.32 µM,6.11 µM,1.83 µM,5.33 µM,1.7 µM,3.52 µM,1.5 µM,3.18 µM
CCOCCc1c(O)nc(SC)[nH]c1=O,> 100 µM,> 100 µM,> 100 µM,> 100 µM,> 100 µM,> 100 µM,> 100 µM,> 100 µM,> 100 µM,> 100 µM,> 100 µM,> 100 µM,> 100 µM,> 100 µM,> 100 µM,> 100 µM,> 100 µM,> 100 µM,> 100 µM,> 100 µM
Fc1ccc(-c2ncn(C3CCNCC3)c2-c2ccnc(Oc3ccccc3)n2)cc1,> 13.1 µM,> 25 µM,23.4 µM,> 25 µM,> 25 µM,> 25 µM,> 23.3 µM,> 25 µM,> 25 µM,> 25 µM,> 25 µM,> 25 µM,13.4 µM,> 25 µM,7.72 µM,> 25 µM,11.7 µM,> 25 µM,7.22 µM,> 25 µM
CCOC(=O)c1c[nH]c2c(OCc3ccccc3)c3ccccc3c(O)c2c1=O,13.5 µM,48 µM,6.24 µM,> 100 µM,12.1 µM,> 74.2 µM,5.73 µM,> 100 µM,13.3 µM,> 83.9 µM,42.5 µM,> 100 µM,15.2 µM,60.8 µM,21.7 µM,> 100 µM,22.6 µM,55.7 µM,4.97 µM,33.4 µM
O=C(/C=C/c1ccccn1)c1ccccc1O,2.36 µM,7.27 µM,2.43 µM,7.04 µM,2.31 µM,5.69 µM,1.71 µM,5.43 µM,1.56 µM,3.08 µM,2.31 µM,4.88 µM,2.8 µM,7.5 µM,1.31 µM,2.6 µM,1.75 µM,3.25 µM,1.92 µM,3.51 µM
COc1ccccc1CNCCCN1C(=O)c2ccc3c4c(ccc(c24)C1=O)C(=O)N(CCCNCCCCNCCCCN)C3=O,2.83 µM,14.4 µM,3.23 µM,19.5 µM,1.62 µM,3.95 µM,0.756 µM,> 33.4 µM,1.62 µM,6.07 µM,1.91 µM,4.87 µM,0.944 µM,8.17 µM,3.44 µM,> 67.3 µM,2.09 µM,10.1 µM,2.82 µM,> 33.9 µM
Nc1ncnc2c1c(-c1cccc(OCc3ccccc3)c1)cn2C1CC(CN2CCCC2)C1 (centres undefined),1.6 µM,4.19 µM,2.7 µM,8.57 µM,4 µM,16.9 µM,2.51 µM,6.66 µM,1.95 µM,3.73 µM,1.66 µM,3.35 µM,1.88 µM,4.54 µM,1.28 µM,3.61 µM,1.21 µM,2.68 µM,2.93 µM,11 µM
COc1ccc(S(=O)(=O)N2CCN(C(=O)OCc3ccccc3)CC2C(=O)NO)cc1 (centres undefined),> 25 µM,> 25 µM,5.37 µM,18.4 µM,18.7 µM,> 25 µM,6.2 µM,> 25 µM,5.16 µM,> 25 µM,> 25 µM,> 25 µM,> 25 µM,> 25 µM,17 µM,> 25 µM,> 25 µM,> 25 µM,10.6 µM,> 25 µM
COc1ccc(-c2cn(-c3ccc(Cl)cc3)c(=S)[nH]2)cc1OC,19.2 µM,> 100 µM,> 100 µM,> 100 µM,14 µM,> 100 µM,> 100 µM,> 100 µM,21.5 µM,> 100 µM,> 100 µM,> 100 µM,1.5 µM,87 µM,39.6 µM,> 100 µM,2.98 µM,> 100 µM,9.53 µM,> 100 µM
C(=N/Nc1ncnc2nc[nH]c12)/c1ccccn1,12.7 µM,> 100 µM,0.367 µM,> 100 µM,0.596 µM,> 49.3 µM,0.227 µM,> 100 µM,0.551 µM,> 100 µM,1.34 µM,> 100 µM,0.609 µM,> 100 µM,0.265 µM,3.09 µM,1.92 µM,7.32 µM,1.19 µM,14.1 µM
C=C1C(=O)O[C@H]2[C@H]1CC/C(COC(=O)/C=C\C(=O)NCc1ccc(Cn3c(=O)sn(-c4ccc(OC)cc4)c3=O)cc1)=C\CC[C@@]1(C)O[C@@H]21,0.913 µM,2.51 µM,0.584 µM,9.78 µM,0.694 µM,1.36 µM,0.174 µM,4.27 µM,0.648 µM,1.56 µM,0.882 µM,1.94 µM,0.701 µM,1.7 µM,0.408 µM,1.06 µM,0.51 µM,1.17 µM,0.46 µM,1.07 µM
C[N+](C)(C)CCC(=O)N1C/C(=C\c2ccccc2)C(=O)/C(=C/c2ccccc2)C1,,21.2 µM,,7.31 µM,,30.6 µM,,7.05 µM,,5.42 µM,,30.1 µM,,9.82 µM,,33 µM,,28.3 µM,,15.3 µM
O=C(Nc1ccc(Cl)c(Cl)c1)C(=O)C(C1OC(=O)c2ccccc21)[N+](=O)[O-] (centres undefined),,> 100 µM,,> 100 µM,,> 100 µM,,> 100 µM,,> 100 µM,,> 100 µM,,> 100 µM,,> 100 µM,,> 100 µM,,> 100 µM
O=C(Nc1ncc(Cc2ccccc2)s1)c1ccc2c(c1)OCCO2,0.0353 µM,> 100 µM,0.146 µM,> 100 µM,0.0395 µM,> 100 µM,0.0484 µM,> 100 µM,0.0251 µM,,0.101 µM,> 100 µM,0.0669 µM,4.03 µM,0.0756 µM,> 100 µM,0.0231 µM,0.0715 µM,0.0676 µM,> 100 µM
CC(C)c1ccc2c(N=Nc3ccc(S(N)(=O)=O)cc3)c(O)[nH]c2c1,8.07 µM,> 25 µM,> 25 µM,> 25 µM,12.5 µM,> 25 µM,> 25 µM,> 25 µM,7.08 µM,> 17.8 µM,> 13.1 µM,> 21.6 µM,9.17 µM,> 25 µM,> 11.9 µM,> 20.7 µM,4.41 µM,> 16 µM,> 14 µM,> 25 µM
CCc1ccc(CCC(=O)Nc2ncc(Cc3cc(Cl)ccc3Cl)s2)o1,1.29 µM,5.96 µM,1.3 µM,> 50 µM,1.74 µM,> 50 µM,0.843 µM,> 50 µM,1.62 µM,> 50 µM,2.66 µM,> 50 µM,2.16 µM,15.6 µM,1.86 µM,22.5 µM,1.19 µM,6.87 µM,1.69 µM,11.6 µM
CN(C)c1ccc(/C=C(\C#N)c2cc3ccccc3n2C)cc1,0.361 µM,> 100 µM,0.32 µM,> 100 µM,0.505 µM,> 100 µM,0.244 µM,> 100 µM,0.122 µM,1.29 µM,0.328 µM,> 100 µM,0.509 µM,> 100 µM,0.82 µM,> 100 µM,0.133 µM,0.549 µM,0.386 µM,> 100 µM
CC1(C)CC(=O)C2=C(C1)NC(SSC1=C(C#N)C(c3ccc(Br)cc3)C3=C(CC(C)(C)CC3=O)N1)=C(C#N)C2c1ccc(Br)cc1 (centres undefined),43.5 µg/mL,> 100 µM and 150 µg/mL,41.9 µg/mL,> 100 µM and 150 µg/mL,> 150 µg/mL,> 100 µM and 150 µg/mL,34.3 µg/mL,> 100 µM and 107 µg/mL,30 µg/mL,> 100 µM and 53.5 µg/mL,> 150 µg/mL,> 100 µM and 150 µg/mL,26.6 µg/mL,> 100 µM and 53.5 µg/mL,76.3 µg/mL,> 100 µM and 150 µg/mL,41.6 µg/mL,> 100 µM and 123 µg/mL,> 150 µg/mL,> 100 µM and 150 µg/mL
